The source made the active and inactive calls. The calls are words filed in the database; no cut-off is given here.
How the values were obtained:
[1] = target: T1, Protein cereblon/Programmed cell death 1 ligand 1 (Homo sapiens) (UniProt Q9NZQ7+Q96SW2); assay: PROTAC activity at CRBN/PD-L1 in human HCC827 cells assessed as induction of PD-L1 protein degradation incubated for 24 hrs by Western blot analysis; type: cell-based; conditions: dose 0.25-10 µM
[2] = target: T1, Protein cereblon/Programmed cell death 1 ligand 1 (Homo sapiens); assay: PROTAC activity at CRBN/PD-L1 in human HCC827 cells assessed as induction of PD-L1 protein degradation at 20 uM measured within 24 hrs by Western blot analysis relative to control; type: cell-based
[3] = target: T1, Protein cereblon/Programmed cell death 1 ligand 1 (Homo sapiens); assay: PROTAC activity at CRBN/PD-L1 in human SK-N-AS cells assessed as induction of PD-L1 protein degradation at 0.25 to 10 uM incubated for 24 hrs by Western blot analysis; type: cell-based; conditions: dose 0.25-10 µM
[4] = target: T1, Protein cereblon/Programmed cell death 1 ligand 1 (Homo sapiens); assay: PROTAC activity at CRBN/PD-L1 in human 786-0 cells assessed as induction of PD-L1 protein degradation at 0.25 to 10 uM incubated for 24 hrs by Western blot analysis; type: cell-based; conditions: dose 0.25-10 µM
[5] = target: Protein cereblon/Programmed cell death 1 ligand 1 (Mus musculus) (UniProt Q9EP73+Q8C7D2); assay: PROTAC activity at CRBN/PD-L1 in mouse MC38 cells assessed as induction of PD-L1 protein degradation at 0.25 to 10 uM incubated for 24 hrs by Western blot analysis; type: cell-based; conditions: dose 0.25-10 µM
Protein cereblon/Programmed cell death 1 ligand 1 (Mus musculus), sequence (Q8C7D2 whole entry partner): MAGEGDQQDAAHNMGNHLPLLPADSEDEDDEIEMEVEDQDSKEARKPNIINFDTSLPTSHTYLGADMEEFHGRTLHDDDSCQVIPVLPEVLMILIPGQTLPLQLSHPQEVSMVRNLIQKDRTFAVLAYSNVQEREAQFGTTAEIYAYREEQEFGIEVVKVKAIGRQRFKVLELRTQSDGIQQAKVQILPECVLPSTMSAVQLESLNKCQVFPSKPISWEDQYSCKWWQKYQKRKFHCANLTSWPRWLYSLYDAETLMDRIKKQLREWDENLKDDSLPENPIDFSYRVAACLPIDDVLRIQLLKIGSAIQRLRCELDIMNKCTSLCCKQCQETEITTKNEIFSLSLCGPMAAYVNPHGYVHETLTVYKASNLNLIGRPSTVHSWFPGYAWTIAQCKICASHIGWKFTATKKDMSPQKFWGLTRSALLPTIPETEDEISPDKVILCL
Protein cereblon/Programmed cell death 1 ligand 1 (Mus musculus), sequence (Q9EP73 19-290 limits assumed): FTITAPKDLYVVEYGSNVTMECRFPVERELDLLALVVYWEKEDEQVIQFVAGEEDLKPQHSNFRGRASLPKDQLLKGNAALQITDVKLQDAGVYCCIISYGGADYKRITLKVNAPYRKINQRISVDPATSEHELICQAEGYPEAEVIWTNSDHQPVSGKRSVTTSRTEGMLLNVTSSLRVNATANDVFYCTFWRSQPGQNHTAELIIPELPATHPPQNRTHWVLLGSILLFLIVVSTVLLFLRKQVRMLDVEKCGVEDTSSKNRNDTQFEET

[6] = target: T1, Protein cereblon/Programmed cell death 1 ligand 1 (Homo sapiens); assay: PROTAC activity at CRBN/PD-L1 in human HCC827 cell membrane assessed as decrease in PD-L1 expression in membrane incubated for 24 hrs by flow cytometric analysis; type: cell membranes; conditions: dose 2.5-10 µM
[7] = target: T1, Protein cereblon/Programmed cell death 1 ligand 1 (Homo sapiens); assay: PROTAC activity at CRBN/PD-L1 in human HCC827 cell membrane assessed as decrease in PD-L1 expression in membrane at 10 uM incubated for 24 hrs by Western blotting; type: cell membranes
[8] = target: T1, Protein cereblon/Programmed cell death 1 ligand 1 (Homo sapiens); assay: PROTAC activity at CRBN/PD-L1 in human HCC827 cell cytoplasm assessed as decrease in PD-L1 expression in cytoplasm at 10 uM incubated for 24 hrs by Western blotting; type: subcellular
[9] = target: T1, Protein cereblon/Programmed cell death 1 ligand 1 (Homo sapiens); assay: PROTAC activity at CRBN/PD-L1 in human HCC827 cells assessed as induction of PD-L1 internalization at cell membrane by measuring decrease in fluorescence intensity of cell membrane at 10 uM incubated for 12 to 24 hrs by DAPI immunostaining based confocal scanning microscopic analysis; conditions: time 12-24 hrs
[10] = target: T1, Protein cereblon/Programmed cell death 1 ligand 1 (Homo sapiens); assay: PROTAC activity at CRBN/PD-L1 in human HCC827 cells assessed as induction of PD-L1 internalization at cell membrane by measuring increase in fluorescence intensity around nucleus at 10 uM incubated for 12 hrs by DAPI immunostaining based confocal scanning microscopic analysis
[11] = target: T1, Protein cereblon/Programmed cell death 1 ligand 1 (Homo sapiens); assay: PROTAC activity at CRBN/PD-L1 in human HCC827 cells assessed as induction of PD-L1 degradation at 10 uM preincubated with 5-((5-((2-chloro-2'-fluoro-[1,1'-biphenyl]-3-yl)methoxy)-2-(((2-hydroxyethyl)amino)methyl)phenoxy)methyl)nicotinonitrile for 4 hrs followed by compound addition and measured after 24 hrs by Western blotting; type: cell-based
[12] = target: T1, Protein cereblon/Programmed cell death 1 ligand 1 (Homo sapiens); assay: PROTAC activity at CRBN/PD-L1 in human HCC827 cells assessed as induction of PD-L1 degradation at 10 uM preincubated with MG132 for 4 hrs followed by compound addition and measured after 24 hrs by Western blotting; type: cell-based
[13] = target: T1, Protein cereblon/Programmed cell death 1 ligand 1 (Homo sapiens); assay: PROTAC activity at CRBN/PD-L1 in human HCC827 cells assessed as induction of PD-L1 degradation at 10 uM preincubated with pomalidomide for 4 hrs followed by compound addition and measured after 24 hrs by Western blotting; type: cell-based
[14] = target: T1, Protein cereblon/Programmed cell death 1 ligand 1 (Homo sapiens); assay: PROTAC activity at CRBN/PD-L1 in human HCC827 cells assessed as induction of PD-L1 degradation at 10 uM preincubated with bafilomycin A1 for 4 hrs followed by compound addition and measured after 24 hrs by Western blotting; type: cell-based
HCC827 [15] = assay: Antitumor activity against human HCC827 cells co-cultured with PMA-activated human Jurkat T cells assessed as T cell mediated tumor killing by measuring survival rate at 10 uM incubated for 24 hrs by CCK8 assay relative to control; type: functional; conditions: read-out: Survival
MC-38 [16] = assay: Antitumor activity against mouse MC38 cells implanted in female C57BL/6 mouse model assessed as tumor growth inhibition at 10 mg/kg, ip administered once daily for 15 days relative to control; type: functional; conditions: MC-38, 360 h, time 15 day, read-out: TGI
MC-38 [17] = assay: Antitumor activity against mouse MC38 cells implanted in female C57BL/6 mouse model assessed as tumor growth inhibition at 20 mg/kg, ip administered once daily for 15 days relative to control; type: functional; conditions: MC-38, 360 h, time 15 day, read-out: TGI
[18] = Toxicity in female C57BL/6 mouse implanted with mouse MC38 cells assessed as effect on body weight at 10 to 20 mg/kg, ip administered once daily for 15 days; type: organism-based; conditions: in vivo, 360 h, dose 10-20 mg/kg, time 15 day
Mus musculus [19] = assay: In vivo PROTAC activity at CRBN/PD-L1 in female C57BL/6 mouse implanted with mouse MC38 cells assessed as decrease in PD-L1 protein expression in tumor at 10 to 20 mg/kg, ip administered once daily for 15 days by hematoxylin staining based immunohistochemistry; type: functional, organism-based; conditions: dose 10-20 mg/kg, time 15.0 day
Mus musculus [20] = assay: Immunoregulatory activity in female C57BL/6 mouse model implanted with mouse MC38 cells assessed as increase in CXCR3 mRNA level in tumor at 10 to 20 mg/kg, ip administered once daily for 15 days by qPCR analysis; type: functional, organism-based; conditions: dose 10-20 mg/kg, time 15.0 day
Mus musculus [21] = assay: Immunoregulatory activity in female C57BL/6 mouse model implanted with mouse MC38 cells assessed as increase in CXCL9 mRNA level in tumor at 10 to 20 mg/kg, ip administered once daily for 15 days by qPCR analysis; type: functional, organism-based; conditions: dose 10-20 mg/kg, time 15.0 day
Mus musculus [22] = assay: Immunoregulatory activity in female C57BL/6 mouse model implanted with mouse MC38 cells assessed as increase in CXCL10 mRNA level in tumor at 10 to 20 mg/kg, ip administered once daily for 15 days by qPCR analysis; type: functional, organism-based; conditions: dose 10-20 mg/kg, time 15.0 day
Mus musculus [23] = assay: Immunoregulatory activity in female C57BL/6 mouse model implanted with mouse MC38 cells assessed as increase in CD8+/CD4+ ratio in tumor at 10 to 20 mg/kg, ip administered once daily for 15 days by flow cytometric analysis; type: functional, organism-based; conditions: dose 10-20 mg/kg, time 15.0 day
Mus musculus [24] = assay: Immunoregulatory activity in female C57BL/6 mouse model implanted with mouse MC38 cells assessed as increase in CD8+/CD4+ ratio in lymph node at 10 to 20 mg/kg, ip administered once daily for 15 days by flow cytometric analysis; type: functional, organism-based; conditions: dose 10-20 mg/kg, time 15.0 day
Mus musculus [25] = assay: Immunoregulatory activity in female C57BL/6 mouse model implanted with mouse MC38 cells assessed as increase in granzyme B expression at 10 to 20 mg/kg, ip administered once daily for 15 days by hematoxylin staining based immunohistochemistry; type: functional, organism-based; conditions: dose 10-20 mg/kg, time 15.0 day
Mus musculus [26] = assay: Immunoregulatory activity in female C57BL/6 mouse model implanted with mouse MC38 cells assessed as increase in perforin expression at 10 to 20 mg/kg, ip administered once daily for 15 days by hematoxylin staining based immunohistochemistry; type: functional, organism-based; conditions: dose 10-20 mg/kg, time 15.0 day
[27] = target: Programmed cell death protein 1/Programmed cell death 1 ligand 1 (Homo sapiens, UniProt Q9NZQ7); assay: Inhibition of human PD-1/PD-L1 interaction by HTRF assay; type: protein-complex assay
Programmed cell death protein 1/Programmed cell death 1 ligand 1, sequence (Q15116 whole entry, the tested form may be a part): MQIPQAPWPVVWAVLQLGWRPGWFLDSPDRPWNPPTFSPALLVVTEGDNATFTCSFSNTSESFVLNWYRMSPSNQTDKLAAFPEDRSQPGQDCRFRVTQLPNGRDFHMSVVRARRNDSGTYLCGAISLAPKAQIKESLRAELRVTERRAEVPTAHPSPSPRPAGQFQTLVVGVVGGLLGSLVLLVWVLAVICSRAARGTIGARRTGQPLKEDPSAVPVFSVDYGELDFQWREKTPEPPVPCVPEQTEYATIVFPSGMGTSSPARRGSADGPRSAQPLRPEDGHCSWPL
Programmed cell death protein 1/Programmed cell death 1 ligand 1, sequence (Q9NZQ7 whole entry, the tested form may be a part): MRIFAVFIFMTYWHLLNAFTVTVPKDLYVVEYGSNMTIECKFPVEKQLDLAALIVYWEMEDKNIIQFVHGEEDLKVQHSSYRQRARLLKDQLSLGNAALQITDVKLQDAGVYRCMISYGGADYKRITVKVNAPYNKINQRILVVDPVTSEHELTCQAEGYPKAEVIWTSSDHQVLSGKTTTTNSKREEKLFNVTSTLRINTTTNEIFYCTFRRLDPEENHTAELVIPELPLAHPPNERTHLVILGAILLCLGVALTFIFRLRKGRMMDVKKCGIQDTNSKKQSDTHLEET

[28] = Binding affinity to C-terminal fused with Fc region of human IgG1 recombinant human PD-L1 extracellular domain (1 to 239 residues) extracted from HEK293 cells assessed as dissociation constant by MST analysis; type: cell-free
HCC827 [29] = assay: Effect on PD-L1 protein expression in human HCC827 cells at 10 uM incubated for 24 hrs by Western blot analysis; type: functional, cell-based
[30] = target: T1, Protein cereblon/Programmed cell death 1 ligand 1 (Homo sapiens); assay: PROTAC activity at CRBN/PD-L1 in human HCC827 cells assessed as induction of PD-L1 protein degradation at 10 uM measured within 24 hrs by Western blot analysis relative to control; type: cell-based
HCC827 [31] = assay: Antitumor activity against human HCC827 cells co-cultured with PMA-activated human Jurkat T cells assessed as T cell mediated tumor killing by measuring survival rate at 5 uM incubated for 24 hrs by CCK8 assay relative to control; type: functional; conditions: read-out: Survival
[32] = target: von Hippel-Lindau disease tumor suppressor/Programmed cell death 1 ligand 1 (Homo sapiens) (UniProt P40337+Q9NZQ7); assay: PROTAC activity at VHL/PD-L1 in human HCC827 cells assessed as induction of PD-L1 protein degradation incubated for 24 hrs by Western blot analysis; type: cell-based; conditions: dose 0.25-10 µM
von Hippel-Lindau disease tumor suppressor/Programmed cell death 1 ligand 1 (Homo sapiens), sequence (P40337 whole entry, looked up): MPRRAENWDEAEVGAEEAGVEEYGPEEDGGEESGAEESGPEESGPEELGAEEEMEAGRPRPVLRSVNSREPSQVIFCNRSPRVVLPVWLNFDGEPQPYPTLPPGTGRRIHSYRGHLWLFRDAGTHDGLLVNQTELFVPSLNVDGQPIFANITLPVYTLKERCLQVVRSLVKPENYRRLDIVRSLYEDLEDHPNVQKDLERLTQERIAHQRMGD
von Hippel-Lindau disease tumor suppressor/Programmed cell death 1 ligand 1 (Homo sapiens), sequence (Q9NZQ7 whole entry, looked up): as the sequence (Q9NZQ7 whole entry, the tested form may be a part) above

T1 sequence (Q96SW2 whole entry, looked up): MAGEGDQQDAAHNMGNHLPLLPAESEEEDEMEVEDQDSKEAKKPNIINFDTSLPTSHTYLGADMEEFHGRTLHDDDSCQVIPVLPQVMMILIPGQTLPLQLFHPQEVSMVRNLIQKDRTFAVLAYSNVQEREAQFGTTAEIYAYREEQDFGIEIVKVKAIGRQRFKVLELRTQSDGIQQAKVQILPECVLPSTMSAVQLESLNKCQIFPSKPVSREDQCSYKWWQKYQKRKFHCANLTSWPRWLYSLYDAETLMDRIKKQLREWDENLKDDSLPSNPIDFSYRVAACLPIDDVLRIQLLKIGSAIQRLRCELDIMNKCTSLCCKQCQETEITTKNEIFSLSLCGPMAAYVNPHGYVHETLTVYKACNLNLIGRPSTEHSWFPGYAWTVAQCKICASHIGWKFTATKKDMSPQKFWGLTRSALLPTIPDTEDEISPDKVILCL
T1 sequence (Q9NZQ7 whole entry, looked up): as the sequence (Q9NZQ7 whole entry, the tested form may be a part) above

## N#Cc1cncc(COc2cc(OCc3cccc(-c4ccccc4F)c3Cl)ccc2CNCCOCCOCCNc2cccc3c2C(=O)N(C2CCC(=O)NC2=O)C3=O)c1 (stereo not given)
[1]
  Activity: Dose-Dependent Effect
[2]
  Activity: 60.9%
[3]
  Activity: Active
[4]
  Activity: Active
[5]
  Activity: Active
[6]
  Activity: Dose-Dependent Effect
[7]
  Activity: Active
[8]
  Activity: Active
[9]
  Activity: Active
[10]
  Activity: Active
[11]
  Activity: inactive
[12]
  Activity: inactive
[13]
  Activity: inactive
[14]
  Activity: inactive
HCC827 [15]
  viability at 10 µM: 50.6%
MC-38 [16]
  inhibition in vivo at 10 mg/kg: 48.7%
MC-38 [17]
  inhibition in vivo at 20 mg/kg: 57.4%
[18]
  Activity: Non-Toxic
Mus musculus [19]
  Activity: Active
Mus musculus [20]
  Activity: Active
Mus musculus [21]
  Activity: Active
Mus musculus [22]
  Activity: Active
Mus musculus [23]
  Activity: Active
Mus musculus [24]
  Activity: Active
Mus musculus [25]
  Activity: Active
Mus musculus [26]
  Activity: Active
[27]
  IC50: 197 nM
[28]
  Kd: 301 nM

## Nc1cccc2c1C(=O)N(C1CCC(=O)NC1=O)C2=O (stereo not given)
HCC827 [29]
  Activity: inactive

## N#Cc1cncc(COc2cc(OCC3C=CC=C(c4ccccc4F)C3Cl)ccc2CNCCOCCOCCOCCOCCOCCOCCC(=O)Nc2cccc3c2CN(C2CCC(=O)NC2=O)C3=O)c1 (stereo not given)
[1]
  Activity: Dose-Dependent Effect

## N#Cc1cncc(COc2cc(OCc3cccc(-c4ccccc4F)c3Cl)ccc2CNCCOCCOCCOCCNc2cccc3c2C(=O)N(C2CCC(=O)NC2=O)C3=O)c1 (stereo not given)
[1]
  Activity: Dose-Dependent Effect
[30]
  Activity: 58%
[3]
  Activity: Active
[4]
  Activity: Active
[5]
  Activity: Active
[6]
  Activity: Dose-Dependent Effect
[7]
  Activity: Active
[8]
  Activity: Active
[9]
  Activity: Active
[10]
  Activity: Active
[11]
  Activity: inactive
[12]
  Activity: inactive
[13]
  Activity: inactive
[14]
  Activity: inactive
HCC827 [31]
  viability at 5 µM: 73.2%
MC-38 [16]
  inhibition in vivo at 10 mg/kg: 34.6%
MC-38 [17]
  inhibition in vivo at 20 mg/kg: 54.9%
[18]
  Activity: Non-Toxic
Mus musculus [19]
  Activity: Active
Mus musculus [20]
  Activity: Active
Mus musculus [21]
  Activity: Active
Mus musculus [22]
  Activity: Active
Mus musculus [23]
  Activity: Active
Mus musculus [24]
  Activity: Active
Mus musculus [25]
  Activity: Active
Mus musculus [26]
  Activity: Active
[27]
  IC50: 219 nM
[28]
  Kd: 251 nM

## N#Cc1cncc(COc2cc(OCc3cccc(-c4ccccc4F)c3Cl)ccc2CNCc2cn(CCCCCC(=O)Nc3cccc4c3CN(C3CCC(=O)NC3=O)C4=O)nn2)c1 (stereo not given)
[1]
  Activity: Dose-Dependent Effect

## N#Cc1cncc(COc2cc(OCc3cccc(-c4ccccc4F)c3Cl)ccc2CNCCCCCCCCNc2cccc3c2C(=O)N(C2CCC(=O)NC2=O)C3=O)c1 (stereo not given)
[1]
  Activity: Dose-Dependent Effect

## N#Cc1cncc(COc2cc(OCc3cccc(-c4ccccc4F)c3Cl)ccc2CNCCCCCNc2cccc3c2C(=O)N(C2CCC(=O)NC2=O)C3=O)c1 (stereo not given)
[1]
  Activity: Dose-Dependent Effect

## N#Cc1cncc(COc2cc(OCc3cccc(-c4ccccc4F)c3Cl)ccc2CNCCO)c1
HCC827 [29]
  Activity: inactive
[28]
  Kd: 20.2 nM

## Cc1ncsc1-c1ccc([C@H](C)NC(=O)[C@@H]2C[C@@H](O)CN2C(=O)[C@@H](NC(=O)CCOCCOCCOCCOCCNCc2ccc(OCc3cccc(-c4ccccc4F)c3Cl)cc2OCc2cncc(C#N)c2)C(C)(C)C)cc1
[32]
  Activity: Dose-Dependent Effect

## Cc1ncsc1-c1ccc([C@H](C)NC(=O)[C@@H]2C[C@@H](O)CN2C(=O)[C@@H](NC(=O)CCCNCc2ccc(OCc3cccc(-c4ccccc4F)c3Cl)cc2OCc2cncc(C#N)c2)C(C)(C)C)cc1
[32]
  Activity: Dose-Dependent Effect

Reference: ChEMBL document CHEMBL6071138, “Design, synthesis, anti-tumor activity and mechanism of novel PROTACs as degraders of PD-L1 and inhibitors of PD-1/PD-L1 interaction” (Bioorg Med Chem, 2024)
